# Where a name gives a salt, the structure may show the parent alone. Read-outs that look alike come from different tables or passages of the source.
# Columns and labels:
# [1] = system: effector T lymphocyte activity (contact hypersensitivity); experiment: Percutaneous test for detecting delayed contact hypersensitivity (contact dermatitis) after DNFB immunization; format: in vivo, guinea pig; conditions: Cavia porcellus, Control: 100, oral 2 mg/kg daily
# Excerpt: 1.1 Percutaneous test for detecting contact hypersensitivity
# The epicutaneous application of dinitrofluorobenzene (DNFB) led to the development of a delayed hypersensitivity in guinea pigs and mice, an immune status, which is linked to the clonal reproduction of antitrinitrophenyl (TNP)-specific T lymphocytes (TDTH -ly). If, after a latency period of at least 5 days, there is a renewed application of DNFB, lymphokines are released through the reaction with the TDTH -ly of this region of the skin and thus lead to a locally limited inflammatory reaction.
# Seven days after the immunization with 1% DNFB, the sides of the experimental animals were depilated and tested by the application of one drop each of the 0.5%, 0.1%, 0.05, 0.025% and 0.01% DNFB solution. […] The test results are obtained from the severity and number of the positive skin reactions, and the stimulation index (SI) is obtained from the comparison of test animals and control animals.
# The test substance is orally administered. A daily dose of 2 mg/kg of body weight, as an aqueous suspension, was administered daily by a stomach tube. Duration of treatment: 1 day+1 (one day after the immunization), up to +6. The control animals received only the lactose content of the composition.
# (§1) The degree of sensitization in percent and the concentration of serum antibodies expressed as antibody titer difference is compared below to the respective control group (screening values).
# (§2) A contact dermatitis value of 120 or more, i.e. corresponding to an at least 20% increase compared to the control, or of less than 80 are taken as proof of a stimulatory or suppressor effect, respectively. Antibody values of >+1 or <-1 illustrate the stimulatory or suppressor effect, respectively, of the substances on the humoral response.
# [2] = system: SE-specific rosette-forming cells (RFC); experiment: Rosette test (SE-specific rosettes); format: in vivo, mouse (inbred CBA strain); conditions: oral administration
# Experimental: The testing of immunostimulatory effects was also conducted on the mouse (inbred CBA strain) by detection through the plaque test for detecting SE (sheep erythrocyte) -specific immunoglobulin M (IgM) and immunoglobulin G (IgG) PFC (plaque forming cells), and by the rosette test.
# 2.2 Rosette Test (SE-specific rosettes)
# According to Burnet's Theory, lymphocytes carry immunoglobulin receptors on their surface. These receptors are directed against a particular antigen and are detectable by a reaction with the specific antigen. The determination of the number of rosette-forming cells (RFC) can serve as a measure of the strength of an incipient immune reaction and consequently also reproduce the effects of a suppression or stimulation of cell-proliferative processes.
# Three days after the intravenous immunization with 2×10^5 SE in 0.2 ml physiological salt solution, the experimental animals were killed by hyperdistention, the spleen was removed and, after addition of Parker medium at pH 7.4, rubbed through Muller gauze. The work to recover the cell suspension was carried out in an ice-cooled water bath from about 0° C. to about 4° C. The determination of the cell density was carried out in a Neubauer counting chamber. Next, the cell count was adjusted to 1×10^7 nuclei-containing cell (NCC) per ml of medium, a count that was kept constant for all experimental formulations. Of this spleen cell suspension (1×10^7 NCC/ml), 0.9 ml were then mixed with 0.1 ml of a 5% washed SE suspension and incubated for 24 hours at 4° C. An NCC, which was surrounded by at least 4 erythrocytes and was identifiable, was rated as a rosette.
# [3] = system: DNP-specific serum antibodies; experiment: Takatsy test for DNP-specific serum antibodies (humoral immune response); format: in vivo, guinea pig; conditions: difference to control group; blood taken 14 days after DNFB
# Experimental: After immunization with DNFB, dinitrophenyl (DNP)-specific humoral antibodies, which preferentially belong to the IgG1 substance class, are developed in guinea pigs. Blood was taken from the experimental animals by puncture of the heart fourteen days after the primary epicutaneous application of DNFB. The antibody (AB) concentration was determined according to the method described by G. Takatsy: A New Method for the Preparation of Serial Dilutions in a Quick and Accurate Way, (Kiserletes Orvostudomany, Hungary, Vol. 2, 1950, pp. 263-396). TNP-laden sheep erythrocytes were used as indicator cells coupled according to Rittenberg and Pratt (M. B. Rittenberg, and K. L. Pratt, Antitrinitrophenyl Plaque Assay. Primary Response of BALB/c Mice to Soluble and Particulate Immunogen, Proc. Soc. Exp. Biol. Med., Vol. 132, 1969, pp. 575-579).
# as §1, §2
# [4] = levamisole after oral administration to man; inosine benzoate about 50 mg/kg/day; cited from earlier work
# immune system = conditions: cited from earlier work
# Vaccinia Lister [5] = experiment: microbe, parasite or virus in culture; format: cell-based; conditions: Orthopoxvirus vaccinia, Fibroblast, in Gallus gallus
# Herpes simplex type 1 = experiment: Grading replication test on RH cell line, herpes simplex type 1; format: cell-based, herpes simplex virus; conditions: Human alphaherpesvirus 1, RH cells
# Vaccinia Lister [6] = experiment: microbe, parasite or virus in culture; format: cell-based; conditions: Orthopoxvirus vaccinia
# Influenza A/WSN [7] = experiment: Grading replication test on RH cell line, influenza; format: cell-based, influenza virus; conditions: RH cells
# Influenza A/WSN [8] = experiment: Grading replication test on chicken embryo fibroblasts, influenza; format: cell-based; conditions: Influenza A virus, Fibroblast
# [9] = 24 h, day +1 to +6, read-out: Contact dermatitis, 24-hour reaction
# [10] = 48 h, day +1 to +6, read-out: Contact dermatitis, 48-hour reaction
# [11] = read-out: Inhibition of virus yield
# [12] = read-out: Lowering the virus yield
# [13] = 62.5 μmoles/l, read-out: Inhibition of virus yield
# [14] = 62.5 μmoles/l, read-out: Lowering the virus yield
# [15] = 125 μmoles/l, read-out: Inhibition of virus yield
# [16] = 125 μmoles/l, read-out: Lowering the virus yield
# [17] = 250 μmoles/l, read-out: Inhibition of virus yield
# [18] = 250 μmoles/l, read-out: Lowering the virus yield
structure (smiles),measurement,setting,value
"COc1cc2[nH]c(=O)n(CC(C)S)c(=O)c2cc1OC (centres unmarked) [Example 14e, 6,7-Dimethoxy-3-(2-mercapto-propyl)-quinazoline-2,4(1H,3H)-dione]",response vs control in vivo at 2 mg/kg,[1]; [9],100%
same,production of SE-specific rosette-forming cells,[2],significant production of SE-specific rosette-forming cells
"O=c1[nH]c2ccc(Cl)cc2c(=O)n1CCCS [Example 8, 6-chloro-3-(3-mercapto-propyl)-quinazoline-2,4(1H,3H)-dione]",response vs control in vivo at 2 mg/kg,[1]; [9],100%
same,response vs control in vivo at 2 mg/kg,[1]; [10],115%
"COc1cc2[nH]c(=O)n(CCS)c(=O)c2cc1OC [Example 3, 3-(2-mercapto-ethyl)-6,7-dimethoxy-quinazoline-2,4(1H,3H)-dione]",response vs control in vivo at 2 mg/kg,[1]; [9],100%
same,DNP-specific antibodies (antibody titer difference),[3],+1.0
"O=c1[nH]c2ccc(Br)cc2c(=O)n1CCS [Example 5, 6-bromo-3-(2-mercaptoethyl)-quinazoline-2,4(1H,3H)-dione]",response vs control in vivo at 2 mg/kg,[1]; [9],150%
same,response vs control in vivo at 2 mg/kg,[1]; [10],120%
same,DNP-specific antibodies (antibody titer difference),[3],-0.6
CC(C)(N1CC1C#N)N1CC1C(N)=O (centres unmarked) [azimexone],side effects,[4],"headaches, vomiting and a decrease in haemoglobin (Hb) and erythrocytes"
"O=c1[nH]c2ccc(F)cc2c(=O)n1CCS [Example 14c, 6-Fluoro-3-(2-mercapto-ethyl)-quinazoline-2,4(1H,3H)-dione]",response vs control in vivo at 2 mg/kg,[1]; [9],90%
same,response vs control in vivo at 2 mg/kg,[1]; [10],105%
"CC(S)Cn1c(=O)[nH]c2ccccc2c1=O (centres unmarked) [Example 7, 3-(2-mercapto-propyl)-quinazoline-2,4(1H,3H)-dione]",response vs control in vivo at 2 mg/kg,[1]; [9],230%
same,DNP-specific antibodies (antibody titer difference),[3],+1.8
"CC(S)Cn1c(=O)[nH]c2ccc(F)cc2c1=O (centres unmarked) [Example 14d, 6-Fluoro-3-(2-mercapto-propyl)-quinazoline-2,4(1H,3H)-dione]",response vs control in vivo at 2 mg/kg,[1]; [9],100%
same,response vs control in vivo at 2 mg/kg,[1]; [10],150%
"O=c1[nH]c2ccc(Br)cc2c(=O)n1CCCS [Example 14b, 6-Bromo-3-(3-mercapto-propyl)-quinazoline-2,4(1H,3H)-dione]",response vs control in vivo at 2 mg/kg,[1]; [9],105%
same,response vs control in vivo at 2 mg/kg,[1]; [10],100%
same,DNP-specific antibodies (antibody titer difference),[3],+2.2
"O=c1[nH]c2ccccc2c(=O)n1CCCS [Example 6, 3-(3-Mercapto-propyl)-quinazoline-2,4(1H,3H)-dione]",response vs control in vivo at 2 mg/kg,[1]; [9],70%
same,response vs control in vivo at 2 mg/kg,[1]; [10],40%
same,DNP-specific antibodies (antibody titer difference),[3],-1.5
same,production of SE-specific rosette-forming cells,[2],significant production of SE-specific rosette-forming cells
"Cc1ccc2[nH]c(=O)n(CCCS)c(=O)c2c1 [Example 12, 6-methyl-3-(3-mercapto-propyl)-quinazoline-2,4(1H,3H)-dione]",response vs control in vivo at 2 mg/kg,[1]; [9],120%
same,response vs control in vivo at 2 mg/kg,[1]; [10],130%
same,DNP-specific antibodies (antibody titer difference),[3],+0.3
c1ccc([C@H]2CN3CCSC3=N2)cc1 [levamisole hydrochloride],immunological effect,immune system,predominantly immunorestorative effect
same,side effects,[4],"vomiting, nausea, leucopenia, and agranulocytosis"
O=C(OC[C@H]1O[C@@H](n2cnc3c(O)ncnc32)[C@H](O)[C@@H]1O)c1ccccc1 [inosine benzoate],immunological effect,immune system,primarily an immunostimulating effect
same,side effects,[4],"vomiting, hyperuricemia and an increase in hematocrits"
"COc1cc2[nH]c(=O)n(CCCS)c(=O)c2cc1OC [Example 2, 3-(3-mercapto-prop-1-yl)-6,7-dimethoxy-quinazoline-2,4(1H,3H)-dione]",inhibition at 31.25 µM,Vaccinia Lister [5]; [11],99.9%
same,inhibition at 62.5 µM,Vaccinia Lister [5]; [11],99.9%
same,inhibition at 125 µM,Vaccinia Lister [5]; [11],> 100%
same,inhibition at 250 µM,Vaccinia Lister [5]; [11],> 100%
same,log reduction at 31.25 µM,Vaccinia Lister [5]; [12],3
same,log reduction at 62.5 µM,Vaccinia Lister [5]; [12],3.5
same,log reduction at 125 µM,Vaccinia Lister [5]; [12],5
same,log reduction at 250 µM,Vaccinia Lister [5]; [12],5
same,inhibition at 31.25 µM,"Herpes simplex type 1; 31.25 μmoles/l, read-out: Inhibition of virus yield",100%
same,log reduction at 31.25 µM,"Herpes simplex type 1; 31.25 μmoles/l, read-out: Lowering the virus yield",3.67
same,inhibition at 62.5 µM,Herpes simplex type 1; [13],> 100%
same,log reduction at 62.5 µM,Herpes simplex type 1; [14],5
same,inhibition at 125 µM,Herpes simplex type 1; [15],> 100%
same,log reduction at 125 µM,Herpes simplex type 1; [16],6.5
same,inhibition at 250 µM,Herpes simplex type 1; [17],> 100%
same,log reduction at 250 µM,Herpes simplex type 1; [18],6.5
same,response vs control in vivo at 2 mg/kg,[1]; [9],180%
same,inhibition at 31.25 µM,Vaccinia Lister [6]; [11],99.8%
same,inhibition at 62.5 µM,Vaccinia Lister [6]; [11],> 100%
same,inhibition at 125 µM,Vaccinia Lister [6]; [11],> 100%
same,inhibition at 250 µM,Vaccinia Lister [6]; [11],> 100%
same,log reduction at 31.25 µM,Vaccinia Lister [6]; [12],2.84
same,log reduction at 62.5 µM,Vaccinia Lister [6]; [12],5
same,log reduction at 125 µM,Vaccinia Lister [6]; [12],5
same,log reduction at 250 µM,Vaccinia Lister [6]; [12],5
same,Inhibition of virus yield,"Influenza A/WSN [7]; 62.5 μmoles/l, n.s. = not significant",n.s.
same,log reduction at 31.25 µM,"Influenza A/WSN [7]; Influenza A virus, WSN, 31.25 μmoles/l, read-out: Lowering the virus yield",0
same,log reduction at 62.5 µM,"Influenza A/WSN [7]; Influenza A virus, WSN, 62.5 μmoles/l, read-out: Lowering the virus yield",0.5
same,inhibition at 125 µM,"Influenza A/WSN [7]; Influenza A virus, WSN, 125 μmoles/l, read-out: Inhibition of virus yield",99%
same,log reduction at 125 µM,"Influenza A/WSN [7]; Influenza A virus, WSN, 125 μmoles/l, read-out: Lowering the virus yield",2
same,inhibition at 250 µM,"Influenza A/WSN [7]; Influenza A virus, WSN, 250 μmoles/l, read-out: Inhibition of virus yield",100%
same,log reduction at 250 µM,"Influenza A/WSN [7]; Influenza A virus, WSN, 250 μmoles/l, read-out: Lowering the virus yield",6.17
same,production of SE-specific rosette-forming cells,[2],significant production of SE-specific rosette-forming cells
same,inhibition at 62.5 µM,Influenza A/WSN [8]; [13],99%
same,log reduction at 62.5 µM,Influenza A/WSN [8]; [14],2
same,inhibition at 125 µM,Influenza A/WSN [8]; [15],> 100%
same,log reduction at 125 µM,Influenza A/WSN [8]; [16],5
same,inhibition at 250 µM,Influenza A/WSN [8]; [17],> 100%
same,log reduction at 250 µM,Influenza A/WSN [8]; [18],5
"O=c1[nH]c2ccc(Cl)cc2c(=O)n1CCS [Example 13, 6-chloro-3-(2-mercapto-ethyl)-quinazoline-2,4(1H,3H)-dione]",response vs control in vivo at 2 mg/kg,[1]; [9],120%
same,response vs control in vivo at 2 mg/kg,[1]; [10],130%
"Cc1ccc2[nH]c(=O)n(CCS)c(=O)c2c1 [Example 14a, 6-Methyl-3-(2-mercapto-ethyl)-quinazoline-2,4(1H,3H)-dione]",response vs control in vivo at 2 mg/kg,[1]; [9],60%
same,response vs control in vivo at 2 mg/kg,[1]; [10],60%
same,DNP-specific antibodies (antibody titer difference),[3],-1.9

# Reference: patent US5306721A (priority 1990, dated 1994)
